Tested on: WT FMDV StopGo expressing construct in HEK-293 cells
Assay type: cell-based, human

Compound | effect on the Renilla/firefly ratio of the WT StopGo expressing construct
COc1ccc(C[C@H]2NC[C@H](O)[C@H]2OC(C)=O)cc1 [anisomycin] | do not affect StopGo
CC[C@H]1OC(=O)[C@H](C)[C@@H](O[C@H]2C[C@@](C)(OC)[C@@H](O)[C@H](C)O2)[C@H](C)[C@@H](O[C@@H]2O[C@H](C)C[C@H](N(C)C)[C@H]2O)[C@](C)(O)C[C@@H](C)CN(C)[C@H](C)[C@@H](O)[C@]1(C)O [azithromycin] | do not affect StopGo
CC[C@H]1OC(=O)[C@H](C)[C@@H](O[C@H]2C[C@@](C)(OC)[C@@H](O)[C@H](C)O2)[C@H](C)[C@@H](O[C@@H]2O[C@H](C)C[C@H](N(C)C)[C@H]2O)[C@](C)(OC)C[C@@H](C)C(=O)[C@H](C)[C@@H](O)[C@]1(C)O [clarithromycin] | do not affect StopGo
CCC[C@@H]1C[C@@H](C(=O)N[C@@H]([C@H]2O[C@H](SC)[C@H](O)[C@@H](O)[C@H]2O)[C@H](C)Cl)N(C)C1 [clindomygin] | do not affect StopGo
C[C@H]1O[C@H](O[C@H]2[C@H](O)[C@@H](O)[C@@H](O)[C@H](O)[C@@H]2O)[C@@H](N)C[C@@H]1NC(=N)C(=O)O [kasugamycin] | do not affect StopGo
CCC[C@@H]1C[C@@H](C(=O)N[C@@H]([C@H]2O[C@H](SC)[C@H](O)[C@@H](O)[C@H]2O)[C@@H](C)O)N(C)C1 [lincomycin] | do not affect StopGo
C=C[C@]1(C)C[C@@H](OC(=O)CSCCN(CC)CC)[C@]2(C)[C@H](C)CC[C@]3(CCC(=O)[C@H]32)[C@@H](C)[C@@H]1O [tiamulin] | do not affect StopGo
CO[C@H]1C[C@H](O[C@H]2[C@H](C)[C@@H](O[C@@H]3O[C@H](C)C[C@H](N(C)C)[C@H]3OC(C)=O)[C@@H](C)C[C@@]3(CO3)C(=O)[C@H](C)[C@@H](OC(C)=O)[C@@H](C)[C@@H](C)OC(=O)[C@@H]2C)O[C@@H](C)[C@@H]1OC(C)=O [troleandomycin] | do not affect StopGo
CC[C@H]1OC(=O)C[C@@H](O)[C@H](C)[C@@H](O[C@@H]2O[C@H](C)[C@@H](O[C@H]3C[C@@](C)(O)[C@@H](O)[C@H](C)O3)[C@H](N(C)C)[C@H]2O)[C@@H](CC=O)C[C@@H](C)C(=O)/C=C/C(C)=C/[C@@H]1CO[C@@H]1O[C@H](C)[C@@H](O)[C@@H](OC)[C@H]1OC [tylosin] | do not affect StopGo
C=C[C@]1(C)C[C@@H](OC(=O)CSC(C)(C)CNC(=O)[C@H](N)C(C)C)[C@]2(C)[C@H](C)CC[C@]3(CCC(=O)[C@H]32)[C@@H](C)[C@@H]1O [valnemulin] | do not affect StopGo
capromycin | do not affect StopGo
gentamycin | do not affect StopGo

Source: US20110136730A1, “"Method for screening compounds comprising the use of picornavirus protease 2A"” (priority 2008, published 2011)
